Test systems include A549 NSCLC; HOP-62 NSCLC; MOLT-4 leukemia; NCI-H522 lung; SF-268 CNS; SF-295 CNS; SNB-19 CNS; U251 CNS; UACC-257 melanoma.
Holding throughout (test): DTP human tumour cell line panel, 48 h

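Test compounds were applied to cells in 96-well plates for 48 hours at 5 doses. GI50 is the concentration that inhibits growth by half. TGI marks complete inhibition of growth.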 Bounds are passed on as bounds.

As usually defined, the TGI is the concentration giving total growth inhibition. Low readings indicate greater sensitivity of the cells, high ones lower sensitivity of the cells. Consider `C=CCNC(=O)N(CCCCC(NC(C)=O)C(=O)NCc1ccccc1)Cc1ccccc1` (centres undefined), for which the TGI with A549 NSCLC, in the test on HOP-62 NSCLC, in the test on MOLT-4 leukemia, in the test on NCI-H522 lung, with SF-268 CNS and in the test on SF-295 CNS was greater than 100 µM throughout. Besides, the TGI in the test on SNB-19 CNS, in the test on U251 CNS and with UACC-257 melanoma was greater than 100 µM in each case.

For the molecule `CCc1ccccc1NC(=O)C1=C(C)NC(C)=C(C(=O)Nc2ccccc2CC)C1c1ccccc1Cl`, the TGI in the test with A549 NSCLC, in the test on HOP-62 NSCLC, with MOLT-4 leukemia, in the test on NCI-H522 lung, in the test on SF-268 CNS and in the test on SF-295 CNS was greater than 100 µM each time. Also, the TGI in the test with SNB-19 CNS, in the test with U251 CNS and in the test on UACC-257 melanoma was greater than 100 µM throughout.

Consider `O/N=C1/C(=C/c2ccc3c(c2)OCO3)CCCC1C(NO)c1ccc2c(c1)OCO2` (centres undefined), for which the TGI in the test on A549 NSCLC was 95.4 µM; in the test on HOP-62 NSCLC, 53.7 µM; in the test with MOLT-4 leukemia, 42.5 µM; in the test on NCI-H522 lung it was 40.2 µM; with SF-268 CNS it was greater than 100 µM; with SNB-19 CNS, greater than 100 µM. Moreover, the TGI came to 45.1 µM in the test on U251 CNS and 33.9 µM in the test with UACC-257 melanoma.

Regarding `COc1ccc(/C=N/N=C(\N)NO)cc1O`, the concentration for total growth inhibition (TGI) in the test on A549 NSCLC, with MOLT-4 leukemia, in the test with SF-268 CNS, in the test on SNB-19 CNS and with U251 CNS was greater than 100 µM in each case.

One may read the GI50 as the concentration that inhibits growth by half. Consider `N.N.N.N.N.NC(=O)c1nn[n-]n1.[Cl-].[Co+3]`, for which the GI50 in the test on A549 NSCLC, in the test on HOP-62 NSCLC, with MOLT-4 leukemia, in the test with SF-268 CNS, in the test with SF-295 CNS and with SNB-19 CNS was greater than 100 µM in each case. Further, the GI50 with U251 CNS and in the test on UACC-257 melanoma was greater than 100 µM each time. The TGI in the test with A549 NSCLC, with HOP-62 NSCLC, in the test on MOLT-4 leukemia, with SF-268 CNS, in the test on SF-295 CNS and in the test with SNB-19 CNS was greater than 100 µM each time. In addition, the TGI in the test on U251 CNS and in the test on UACC-257 melanoma was greater than 100 µM each time.

On to `CCOC(=O)C12CCCC1(O)N(NC(=O)OC(C)(C)C)C(C)=C2C(=O)OC` (centres undefined), for which the TGI in the test with A549 NSCLC, with HOP-62 NSCLC, in the test with MOLT-4 leukemia, in the test with NCI-H522 lung, in the test with SF-268 CNS and with SF-295 CNS was greater than 100 µM throughout. Besides, the TGI in the test on SNB-19 CNS, with U251 CNS and in the test with UACC-257 melanoma was greater than 100 µM each time.

`O=C1CC(O)CC(=O)C1=C(O)CCCCCCCCCCc1ccccc1` (centres undefined): the TGI in the test with A549 NSCLC, in the test on HOP-62 NSCLC, with MOLT-4 leukemia, in the test with NCI-H522 lung, with SF-268 CNS and in the test with SF-295 CNS was greater than 100 µM throughout. For the same molecule, the TGI with SNB-19 CNS, with U251 CNS and with UACC-257 melanoma was greater than 100 µM throughout.

For `COC(=O)CC1C[C@H](C#N)N(C(=O)c2ccccc2)C[C@@H]1CC[N+](=O)[O-]` (some centres undefined), the TGI in the test on A549 NSCLC, in the test on HOP-62 NSCLC, in the test on MOLT-4 leukemia, in the test with SF-268 CNS, in the test with SF-295 CNS and in the test with SNB-19 CNS was greater than 100 µM throughout. Besides, the TGI in the test on U251 CNS and in the test with UACC-257 melanoma was greater than 100 µM in each case.

For the molecule `CC1=C(C(=O)Nc2cc(=O)n(C)c(=O)n2C)C(c2ccco2)C(C(=O)Nc2cc(=O)n(C)c(=O)n2C)=C(C)N1`, the TGI with A549 NSCLC, with HOP-62 NSCLC, in the test with MOLT-4 leukemia, with NCI-H522 lung, with SF-268 CNS and in the test on SF-295 CNS was greater than 100 µM each time. Also, the TGI in the test on SNB-19 CNS, in the test with U251 CNS and with UACC-257 melanoma was greater than 100 µM each time.

Consider `COC(=O)NC(=O)c1cn(C2OC(CO)C(O)C2O)c(=O)[nH]c1=O` (centres undefined), for which the TGI with A549 NSCLC, in the test on HOP-62 NSCLC, in the test with MOLT-4 leukemia, in the test on NCI-H522 lung, with SF-268 CNS and in the test with SF-295 CNS was greater than 100 µM each time. The TGI in the test with SNB-19 CNS, with U251 CNS and in the test with UACC-257 melanoma was greater than 100 µM in each case.

Take `Cc1cc(CC(=O)NCCO)n(CCO)c(=O)c1`: the TGI in the test on A549 NSCLC, in the test on HOP-62 NSCLC, with MOLT-4 leukemia, in the test with NCI-H522 lung, in the test with SF-268 CNS and in the test with SF-295 CNS was greater than 100 µM in each case. Moreover, the TGI in the test with SNB-19 CNS, with U251 CNS and in the test with UACC-257 melanoma was greater than 100 µM throughout.

Turning to `O=C(O)CCN(CCCCN(CCC(=O)O)CCC(=O)O)CCC(=O)O`, the TGI with A549 NSCLC, in the test on HOP-62 NSCLC, with MOLT-4 leukemia, in the test with NCI-H522 lung, in the test on SF-268 CNS and in the test with SF-295 CNS was greater than 100 µM throughout. In the test on U251 CNS, this molecule came in with a TGI greater than 100 µM.

With `NC(=O)C(=O)N/N=C1\C(=O)N(c2ccc(Cl)cc2Cl)C(=O)C1C(=O)Nc1ccc(Cl)cc1Cl` (centres undefined), the TGI in the test with A549 NSCLC, in the test with HOP-62 NSCLC, in the test with MOLT-4 leukemia, with NCI-H522 lung, in the test on SF-268 CNS and in the test on SF-295 CNS was greater than 100 µM throughout. Besides, the TGI with SNB-19 CNS, with U251 CNS and in the test on UACC-257 melanoma was greater than 100 µM each time.

As for `CC1=C(c2ccccc2)C(c2ccccc2)=C(c2ccccc2)C2(c3ccccc3)C(=O)C(C)CN12` (centres undefined), the TGI was greater than 100 µM in the test on A549 NSCLC; greater than 100 µM with HOP-62 NSCLC; greater than 100 µM in the test on MOLT-4 leukemia; 72.4 µM with NCI-H522 lung; greater than 100 µM in the test with SF-268 CNS; 37.7 µM with SF-295 CNS. Besides, the TGI in the test on SNB-19 CNS, in the test with U251 CNS and in the test with UACC-257 melanoma was greater than 100 µM in each case.

With `COc1ccc(C23C(=O)c4ccccc4N2O[C@H]2C(=O)N(c4ccccc4)C(=O)[C@H]23)cc1` (some centres undefined), the TGI in the test with A549 NSCLC is greater than 100 µM; with HOP-62 NSCLC, greater than 100 µM; in the test on MOLT-4 leukemia it was greater than 100 µM; in the test with NCI-H522 lung, 87.3 µM; in the test on SF-268 CNS it was greater than 100 µM; in the test on SF-295 CNS it was greater than 100 µM. Besides, the TGI with SNB-19 CNS, in the test with U251 CNS and in the test with UACC-257 melanoma was greater than 100 µM in each case.
